Source: patent publication US8232402B2, “Quinolinone farnesyl transferase inhibitors for the treatment of synucleinopathies and other indications” (Link Medicine Corporation, priority 2008, dated 2012)
“Also recorded” adds a separate entry of the source.

Tests used:
[1] = test system: α-synuclein in SH-SY5Y cells; assay: α-synuclein accumulation in infected SH-SY5Y cells (Western blot); format: cell-based; conditions: SH-SY5Y cells infected with α-synuclein adenovirus, normalized to actin
Procedure: Western Blotting: Following transfer of SDS gels onto NC membrane, all membranes were blocked with 5% non-fat milk in TBST (50 mM Tris-HCl pH7.4, 150 mM NaCl, 0.1% Tween 20), and incubated with primary antibody overnight with 1% BSA in TBST, washed three times with TBST, and incubated with horseradish peroxidase-conjugated secondary antibody for 1 hour (Promega). Bound antibodies were detected using enhanced chemiluminascence (NEM).
Since α-synuclein neurotoxicity is dose-dependent, it follows that accumulation of α-synuclein, caused by UCH-L1 farnesylation, should promote its toxicity. […] These cells express high endogenous levels of UCH-L1. […] The unit of y-axis is 10^5/ml. (F) Cell viability was assessed by the amount of metabolic activity using MTT assay. […] The effect of FTI-277 on the α-synuclein accumulation in the SH-SY5Y infected with α-synuclein-expressing adenovirus were analyzed by Western blotting (B) and the amount of α-synuclein (C) was quantified using NIH Image program and normalized against the amount of actin.

[2] = test system: SH-SY5Y cells overexpressing α-synuclein; assay: α-synuclein toxicity in SH-SY5Y cells infected with α-synuclein-expressing adenovirus (Trypan blue, MTT); format: cell-based
Procedure: Viral Infection: Viral infection and MTT assay in SH-SY5Y cells: The viruses were amplified and purified according to the published procedure. SH-SY5Y cells were grown on 100 mm petri-dishes and induced with 100 nM retinoic acid for 3-5 days before the virus infection with M.I.O at 75. Viruses were diluted with DPBS to desired M.I.O. After four hours of incubation, 10 ml growth medium was added. On the second day, cells were splitted into 96-well plates and treated with compounds for next 48 hours. The growth medium in each well was replaced with growth medium with 5 ug/ml MTT. Medium was removed after three hours incubation, and 200 ul isopropyl (0.04N HCl) was added into each well. The signal was read at 570 nm.
Viable cell counting: At stated time points, SH-SY5Y cells were trypsinized with 100 ul trypsin-EDTA for 1 minute and neutralized with 400 ul growth medium. Cell suspension was made up by mixing 0.2 ml of cells in growth medium, 0.3 ml of HBSS and 0.5 ml of 0.4% Trypan Blue solution. Viable cell numbers were counted by standard cell counting chamber.
Since α-synuclein neurotoxicity is dose-dependent, it follows that accumulation of α-synuclein, caused by UCH-L1 farnesylation, should promote its toxicity. […] These cells express high endogenous levels of UCH-L1. […] The unit of y-axis is 10^5/ml. (F) Cell viability was assessed by the amount of metabolic activity using MTT assay. […]

[3] = test system: α-synuclein in COS-7 cells; assay: α-synuclein degradation assay in COS-7 cells; format: cell-based
Source text: Plasmids: C220S cDNA was generated by PCR site-specific mutagenesis. For the PCR, the 5′ primer is uchforw SEQ ID NO: 1 ([…]), and 3′ primer is uchc220s SEQ ID NO:2 (CTAAGA […]). Wt UCH-L1 served as the template. The PCR fragment was inserted into pcDNA vector. For S 18YC220S mutant, S 18Y UCH-L1 served as the template in PCR. For the FLAG tagged UCH-L1, the 5′ primer is FLAGuchforw SEQ ID NO: 3 ([…] CGATGGAG), and the 3′ primer is uchrev SEQ ID NO: 4 ([…]). Wt UCH-L1 or C220S served as the template. PCR fragment was purified and inserted into pcDNA vector. For the FLAG tagged UCH-L3, the 5′ primer is L3HindIII SEQ ID NO: 5 (CTAAAGCTTATGGACTAC […]), the 3′ primer is L3XhoISAA SEQ ID NO: 6 ([…]). […] After 24 hours of incubation, the cells were lysed with Tris buffer (50 mM Tris, 2% SDS, 0.1% NP-40), and subjected to SDS-PAGE, followed by quantitative Western blotting.
The C220S mutation eliminated the ability of S118 to promote α-synuclein accumulation in COS-7 cells but had no effect on the S18Y polymorph (FIG. 2, panel C): the relative amount of 16 kDa α-synuclein was quantified and normalized against the amount of actin in transfected COS-7 cells with the presence of UCH-L1 variants. […]

[4] = test system: primary dopaminergic cultures; assay: α-synuclein toxicity in primary dopaminergic cultures; format: cell-based
UCH-L1 in SH-SY5Y cells = assay: UCH-L1 membrane association and level in SH-SY5Y cells (2D electrophoresis, Western blot); format: cell-based
Procedure: Membrane fractionation: Cells were harvested by scraping and washed with PBS. Cell pellet was suspended in lysis buffer (50 mM Tris-HCl, 1 mM EDTA) supplemented with protease inhibitor cocktail (Sigma) and homogenized by passing through 26G needles 10 times. Suspension was clarified by spinning at 600 g for 5 minutes. Clarified suspension was ultracentrifuged at 100,000 g for 2 hours and separated into membrane and cytosol. Membrane fraction was washed with washing buffer (50 mM Tris-HCl, 1 mM EDTA 1 M NaCl), and pelleted each time with bench-top centrifuge.
2D electrophoresis: For the isolation of total cellular protein, cultured SH-SY5Y cells maintained as described above were rinsed with ice-cold PBS. Cells were lysed in 1 ml dSDS buffer (50 mM Tris-HCl, pH 8.0 0.1% SDS) supplemented with protease inhibitor cocktail. Lysates were boiled for 3 min, and were treated with Dnase and Rnase as described. Lysates were precipitated with ice-cold acetone for at least 2 hours, and pellets were resuspended in 2D sample buffer (8M urea, 0.5% CHAPS, 0.2% DTT, 0.5% IPG buffer, 0.002% bromophenol blue). 2D electrophoresis was carried out according to manufacture's protocol (Amersham Life Science). 7 cm pH 4-7 strips were used. For SH-SY5Y membrane fraction, culture SH-SY5Y cells were rinsed with cold PBS and harvested with lysis buffer (50 mM Tris-HCl, pH 8.0, 1 mM ZnAc2, 250 mM sucrose). Lysate was passed through 25G needles for several times and spun at 1000 g for 5 min. Supernatant was centrifuged at 200,000 g for 2 hours. Pellet was extensively washed with lysis buffer and extracted with cold acetone. Pellet was resuspended in 2D sample buffer.
This species was presumably the fully processed species: farnesylated, truncated and C-terminally methylated.

α-synuclein inclusions = assay: Inclusion histology in α-synuclein transgenic mice (α-synuclein and ubiquitin immunostaining, Campbell-Switzer); format: in vivo
Procedure: (§1) Farnesyl transferase inhibitors Zarnestra and OSI-754 were administered to mice of the α-synuclein transgenic line described in Masliah et al. (Masliah et al. “Dopaminergic loss and inclusion body formation in alpha-synuclein mice: implications for neurodegenerative disorders” Science 287(5456): 1265-69, 2000; incorporated herein by reference). Animals from this line have α-synuclein neuronal inclusions in the cortex, hippocampus, and the olfactory bulb (Masliah et al. “Dopaminergic loss and inclusion body formation in alpha-synuclein mice: implications for neurodegenerative disorders” Science 287(5456): 1265-69, 2000; incorporated herein by reference). Transgenic mice were orally administered either FTI in 20% cyclodextrin solution or the same volume of vehicle alone twice a day for 30 or 90 days. In some cases, non-transgenic mice also received vehicle twice a day for 30 to 90 days. At the end of treatment, mice were sacrificed, and the brains removed and hemisected. One hemisphere of each was fixed in 4% paraformaldehyde/PBS (pH 7.4), cryoperserved, then sectioned for histology. The other hemisphere was subdivided into four brain regions, including the cortex and hippocampus, that were homogenized and processed into cytoplasmic and membrane fractions.
Formation of α-synuclein inclusions in the cortex and hippocampus was probed by immunostaining with an antibody for human α-synuclein. Cells positive for human α-synuclein were quantified. […] These regions were also analyzed for ubiquitin-immunoreactive inclusions and by the Campbell Switzer method of silver staining. Ubiquitin is known to be a constituent of Lewy bodies and in the α-synculein inclusions found in the transgenic mouse line used in the study (Masliah et al. “Dopaminergic loss and inclusion body formation in alpha-synuclein mice: implications for neurodegenerative disorders” Science 287(5456): 1265-69, 2000; incorporated herein by reference). […] Campbell-Switzer staining is a general marker of Lewy Body type inclusions (Uchihara et al. “Silver stainings distinguish Lewy bodies and glial cytoplasmic inclusions: comparison between Gallyas-Braak and Campbell-Switzer methods” Acta Neuropathol (Berl) 110(3):255-60, 2005; incorporated herein by reference).
Formation of α-synuclein inclusions in the cortex and hippocampus was probed by immunostaining with an antibody for human α-synuclein. Cells positive for human α-synuclein were quantified.

farnesylated UCH-L1 = assay: Farnesylated UCH-L1 in cortex membrane fraction of α-synuclein transgenic mice (quantitative Western blot); format: in vivo; conditions: 35 mg/kg twice a day, 30 days
Procedure: Farnesyl transferase inhibitors Zarnestra and OSI-754 were administered to mice of the α-synuclein transgenic line described in Masliah et al. (Masliah et al. “Dopaminergic loss and inclusion body formation in alpha-synuclein mice: implications for neurodegenerative disorders” Science 287(5456): 1265-69, 2000; incorporated herein by reference). Animals from this line have α-synuclein neuronal inclusions in the cortex, hippocampus, and the olfactory bulb (Masliah et al. “Dopaminergic loss and inclusion body formation in alpha-synuclein mice: implications for neurodegenerative disorders” Science 287(5456): 1265-69, 2000; incorporated herein by reference). […]
Total α-synuclein levels were analyzed by a sandwich ELISA assay similar to one previously described (El-Agnaf et al. “Detection of oligomeric forms of alpha-synuclein protein in human plasma as a potential biomarker for Parkinson's disease” FASEB J. 20(3):419-25, 2006; incorporated herein by reference). […] Transgenic mice that received Zarnestra had lower α-synuclein protein levels than vehicle-treated transgenic mice and nearly the same as that detected in the non-transgenic group in both the cytoplasmic (FIG. 10) and membrane fractions (FIG. 11), which represent soluble and insoluble α-synuclein, respectively. […] The amount of UCH-L1 was determined by quantitative Western Blot. […]

α-synuclein = α-synuclein sandwich ELISA in brain fractions of α-synuclein transgenic mice; format: in vivo
Procedure: as §1
Total α-synuclein levels were analyzed by a sandwich ELISA assay similar to one previously described (El-Agnaf et al. “Detection of oligomeric forms of alpha-synuclein protein in human plasma as a potential biomarker for Parkinson's disease” FASEB J. 20(3):419-25, 2006; incorporated herein by reference). In the cortex of vehicle treated animals, α-synuclein protein levels in the α-synuclein transgenic line are greater than in non-transgenic mice in both cytoplasmic (FIG. 10) and membrane fractions (FIG. 11). Transgenic mice that received Zarnestra had lower α-synuclein protein levels than vehicle-treated transgenic mice and nearly the same as that detected in the non-transgenic group in both the cytoplasmic (FIG. 10) and membrane fractions (FIG. 11), which represent soluble and insoluble α-synuclein, respectively. Farnesylated UCH-L1 in the cortex is contained in the membrane fraction. The amount of UCH-L1 was determined by quantitative Western Blot.

[5] = α-synuclein transgenic mice, summary, dose not given

In the case of COC(=O)[C@H](CCSC)NC(=O)c1ccc(NC[C@@H](N)CS)cc1-c1ccccc1 [FTI-277], the “amount of α-synuclein” value [1] is reported as “reduced the amount of α-synuclein”, the “loss of cells (α-synuclein toxicity)” value [2] is reported as “inhibits synuclein toxicity; also recorded: significantly decreased loss of cells” and the α-synuclein levels ([3]; COS-7 cells) is reported as “lowers α-synuclein levels”. The α-synuclein toxicity [4] was “inhibit α-synuclein toxicity”, the “total amount of UCH-L1” value (UCH-L1 in SH-SY5Y cells) was “reduced the total amount of UCH-L1” and the “amount of cytosolic UCH-L1” value (UCH-L1 in SH-SY5Y cells; compared to DMSO) was “without affecting”. The “amount of membrane bound UCH-L1” value (UCH-L1 in SH-SY5Y cells; compared to DMSO) was “significant decrease; also recorded: reducing the amount of membrane-associated protein” and the “rate of turnover of UCH-L1” value (UCH-L1 in SH-SY5Y cells; pulse-chase) was “increased its rate of turnover”.
With Cn1cncc1C(N)(c1ccc(Cl)cc1)c1ccc2c(c1)c(-c1cccc(Cl)c1)cc(=O)n2C (centres unmarked) [Zarnestra] the “Campbell-Switzer stained inclusions versus vehicle” value (α-synuclein inclusions; 35 mg/kg twice a day, 30 days) was “fewer inclusions”, the “ubiquitin-immunoreactive inclusions versus vehicle” value (α-synuclein inclusions; 35 mg/kg twice a day, 30 days) was “fewer ubiquitin-immunoreactive inclusions” and the inclusions versus vehicle (α-synuclein inclusions; 35 mg/kg twice a day, 30 days, oral) was “fewer inclusions”. The “α-synuclein-positive cells per mm^2 versus vehicle” value (α-synuclein inclusions; cortex and hippocampus, 35 mg/kg twice a day, 30 days) was “significantly fewer”, the inclusions versus vehicle (α-synuclein inclusions; [5]) was “fewer inclusions” and the “amount of farnesylated UCH-L1” value (farnesylated UCH-L1) was “decreased the amount of farnesylated UCH-L1”. The “levels of α-synuclein protein (ELISA)” value (α-synuclein; cortex, cytoplasmic and membrane fractions, 35 mg/kg twice a day, 30 days) was “decreased levels of α-synuclein protein” and the “levels of α-synuclein in the cortex” value (α-synuclein; [5]) was “decrease levels of α-synuclein in the cortex”.
With CC(=O)N[C@@H](CSC(=O)[C@]1([C@@H](O)C(C)C)NC(=O)[C@H](C)[C@@H]1O)C(=O)O [lactacystin] the “accumulation of α-synuclein” value ([3]; transfected COS-7 cells, 35 μM lactacystin, 24 hours) was 100%.
